The values below are quoted from earlier work in patent publication US20130071408A1, “Methods for Diagnosis and Treatment of Non-Insulin Dependent Diabetes Mellitus” (priority 2010, published 2013).

This series concerns the target CD44 and HA (Homo sapiens, UniProt P16070). The conditions noted are these: cell-based assay; read-out: IC50 value, inhibits the binding of CD44 and HA.

Sequence of CD44 and HA (P16070 21-742): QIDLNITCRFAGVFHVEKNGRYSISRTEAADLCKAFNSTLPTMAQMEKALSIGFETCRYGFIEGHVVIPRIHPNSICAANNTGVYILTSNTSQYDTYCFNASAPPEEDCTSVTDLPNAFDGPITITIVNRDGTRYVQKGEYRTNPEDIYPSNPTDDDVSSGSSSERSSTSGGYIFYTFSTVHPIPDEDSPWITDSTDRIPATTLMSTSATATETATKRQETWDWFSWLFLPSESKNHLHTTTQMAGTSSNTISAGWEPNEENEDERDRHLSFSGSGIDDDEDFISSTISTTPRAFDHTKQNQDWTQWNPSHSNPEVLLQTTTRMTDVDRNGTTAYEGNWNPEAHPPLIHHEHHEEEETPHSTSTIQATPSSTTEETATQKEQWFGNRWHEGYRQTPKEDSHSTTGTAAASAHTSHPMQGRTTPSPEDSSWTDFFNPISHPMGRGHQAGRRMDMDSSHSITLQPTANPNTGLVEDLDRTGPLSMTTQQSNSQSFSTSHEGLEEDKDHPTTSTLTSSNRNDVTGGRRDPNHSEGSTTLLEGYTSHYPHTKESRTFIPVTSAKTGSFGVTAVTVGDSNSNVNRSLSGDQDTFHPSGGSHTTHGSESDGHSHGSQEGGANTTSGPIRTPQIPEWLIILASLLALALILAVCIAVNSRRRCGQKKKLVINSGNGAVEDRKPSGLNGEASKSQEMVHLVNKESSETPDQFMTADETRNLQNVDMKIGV

As to `CCCCCCC(O)CCCC(CCCCCCCCCCCCCC(O)C(=O)O)OC1OCC(O)C(O)C1OC1OCC(OC(C)=O)C(O)C1OC1OC(COC(C)=O)C(O)C(O)C1O` (stereo not shown) [F-19848 A], the half-inhibitory concentration (IC50) was 23.5 µM.

The term IC50 denotes the concentration at which inhibition is half-maximal.
